Where two headings read alike, the source gives them in different places.

In one test the test system is H460 cells. Briefly: Cell cycle analysis by flow cytometry (propidium iodide). In kind it is cell-based, Human. The note with it: 24 h. On the procedure:
The distribution of DNA content in βII or βIVb tubulin siRNA-transfected H460 cells was determined by flow cytometry. After 72 h transfection, transfected cells were exposed to vincristine at 5 nM or 40 nM concentrations for 24 h. On the day of analysis, both adherent and floating cells were harvested, washed with PBS and then stained with a solution containing 0.4% Triton® X-100 (Sigma), 50 μg/ml propidium iodide (Sigma), and 2 μg/ml DNase-free RNase (Roche, Indianapolis, Ind.) in the dark for 15 min at 37′C. DNA content was measured by a FACSCalibur flow cytometer (Becton Dickinson, San Diego, Calif.). The flow rate was <200 nuclei per second and 10,000 cells from each sample were analysed. Measurements were performed under the same instrumental settings. The CellQuest® program was used to quantitate the distribution of cells in each cell cycle phase: sub-G1 (apoptotic cells), G1, S and G2/M.
To determine whether βIII-tubulin silencing affects the cell cycle profiles, cell cycle analysis using flow cytometry was performed. Cell cycle analysis was determined by transfecting H460 cells with siRNA for 72 h and harvesting (adherent and suspension) cells 24 h after drug treatment. DNA content was stained for 15 min at 37° C. with a solution containing 0.4% Triton® X-100 (Sigma-Aldrich), 50 μg/ml propidium iodide (Sigma-Aldrich), and 2 μg/ml DNAse-free RNAse (Roche, Indianapolis, Ind.). The cells were then analyzed for cell cycle perturbation using a FACSCalibur (Becton-Dickinson, Franklin Lakes, N.J.). The CellQuest® program was used to quantitate the distribution of cells in each cell cycle phase: sub-G1(apoptotic cells), G1, S and G2/M.
For orientation: A flow cytometer gives signals particle by particle.

Another test relates to NSCLC H460 cells. Briefly: Drug-treated clonogenic assay (surviving fraction, ID50) on siRNA/shRNA-transfected cells. In kind it is cell-based, Human. As to conditions: for IC50: Homo sapiens, NCI-H460, Table 2, read-out: ID50 ± SEM; for RS (relative sensitivity): Table 2; for change in drug sensitivity (clonogenic survival): H460. On the procedure:
(§1) Cells were transfected for 24 h and approximately 600 cells (for Calu-6) or 150 cells (for H460) were seeded into each well of a 6-well plate and allowed to attach for 4-6 h. The cell lines used in this study were not subject to prior drug selection, and are likely to represent intrinsic drug resistance observed in lung carcinoma.
(§2) Cells were then treated with increasing concentrations of various anti-mitotic drugs. Following a 3-day incubation at 37° C., the drug-containing medium was removed and replaced with fresh complete medium. Medium was changed at 3-4 day intervals for 7 to 10 days until visible colonies formed. […] Surviving colonies were simultaneously fixed and stained with 0.5% crystal violet in methanol, rinsed with water to remove excess stain and air-dried overnight.
(§3) The colonies in each well were manually counted, and the results were presented as surviving fraction according to the formula: surviving fraction was calculated as follows: colony number/(number of cells seeded×plating efficiency), where plating efficiency is equivalent to the colony number divided by the number of cells seeded in the drug-free medium. Dose-response curves were plotted for each drug-cell line combination and inhibitory dose (ID50) values were extrapolated from this curve using GraphPad Prism program (GraphPad Software, version 4, San Diego, Calif.). ID50 was defined as the concentration of the drug required to reduce the number of colonies in drug-treated wells to 50% of that of the relevant untreated control wells. The ID50 values were the means of at least four independent experiments.
(§4) To quantitate any change in drug sensitivity, drug treated clonogenic assays were performed. Twenty-four hours after siRNA transfection, cells were harvested and plated into 6-well plates for 6 h, prior to the addition of various drugs as indicated in the figure legends. After 72 h incubation, the drug-containing media was removed and replaced with complete growth media. Medium was changed every 3 days for 7 to 10 days until visible colonies formed. Colonies were simultaneously fixed and stained with 0.5% crystal violet in methanol, and manually counted. Individual stained colonies in each well were counted and the surviving fraction was calculated as follows: colony number/(number of cells seeded×plating efficiency), where plating efficiency equals the colony number divided by the number of cells seeded in drug-free media.

Test [1] has as its system Calu-6 cells. Briefly: Immunofluorescent staining of microtubules (α-tubulin) after drug treatment. In kind it is cell-based, Human. As to conditions: 1 h, vs control. On the procedure:
Transfected Calu-6 cells were grown on sterile chamber slides until 60-70% confluent. Cells were then treated with paclitaxel and vincristine for 1 h at 10 nM. Cells were fixed in methanol and processed for staining as previously described (Don et al. (2004) supra) with minor modifications. Fixed cells were stained with α-tubulin (1:400 in 5% FCS/PBS, Sigma) for 30 min followed by Cy2 anti-mouse fluorescent tagged antibody (1:1,000 in 5% FCS/PBS, GE Healthcare). Slides were mounted on a coverslip using DAPI II Counterstain (Vysis Inc., Downers Grove, Ill.). Slides were viewed using a Zeiss Axioplan 2 Immunofluorescence Microscope (Mannheim, Germany) with Image-Pro® Plus 4.1 software (Media Cybernetics, L.P., Silver Spring, Md.).
To assess the effects of βIII downregulation on microtubule organization, immunofluorescence staining was performed on transfected Calu-6 cells as follows. Briefly, siRNA transfected cells were plated in glass chamber slides and allowed to reach 70% confluence. Cells were then treated with 10 nM of paclitaxel or vincristine for 1 hour. Drug was then removed by washing cells with PBS and blocked in 10% FCS/PBS. For dual staining, cells were first labelled with an antibody to class III β-tubulin which was exposed to cells incubated at 37° C. for 30 minutes in a humidified chamber. Following washes in 0.1% Tween 20/PBS at room temperature, the slides were incubated with Cy3 anti-mouse fluorescent-tagged antibody (GE Healthcare) for 40 minutes in a humidified chamber in the dark at room temperature. Following incubation, the slides were washed again in 0.1% Tween 20/PBS. This was then followed by staining with α-tubulin and Cy2 anti-mouse fluorescent tagged antibody (GE Healthcare). Slides were mounted on a coverslip using DAPI II Counterstain (Vysis Inc., Downers Grove, Ill.). Immunofluorescence microscopy was performed and images were captured using a Sensicam Charged Coupled Device camera (PCO Imaging, Kelheim, Bavaria, Germany) and the Image-Pro® Plus 4.1 software (Media Cybernetics, L.P., Silver Spring, Md.).

In the next test the test system is CCRF-CEM Leukaemia cells. In kind it is cell-based. As to conditions: lowest resistant subline CEM/2ME2-3.6R only. An excerpt:
The tubulin-binding agent 2-methoxyestradiol (2ME2) binds to β-tubulin near the colchicine-binding site, inhibits microtubule polymerization, and induces mitotic arrest. CCRF-CEM Leukaemia cells that display increasing resistance to 2ME2 were selected, and four of the highly 2ME2 resistant leukaemia sublines were chosen for detailed analysis.

Test [2] has as its system Calu-6 cells. Briefly: Drug-treated clonogenic assay on siRNA-transfected cells. In kind it is cell-based, Human. On the procedure: as §1, §2, §3, §4
[3] abbreviates: 27-mer βIII siRNA Sequence-8 H460 cells.
Where [4] appears, read: 27-mer βIII siRNA Sequence-11 H460 cells.
The mark [5] stands for this setting: class II β-tubulin siRNA knockdown vs controls.
[6] abbreviates: class IVb β-tubulin siRNA knockdown vs controls.

Regarding `CC[C@]1(O)C[C@H]2CN(CCc3c([nH]c4ccccc34)[C@@](C(=O)OC)(c3cc4c(cc3OC)N(C=O)[C@H]3[C@@](O)(C(=O)OC)[C@H](OC(C)=O)[C@]5(CC)C=CCN6CC[C@]43[C@@H]65)C2)C1` [VCR, vincristine], the cell cycle profile entry in the test on H460 cells (βII siRNA transfectants, 5 nM) is “increase in the G2/M and sub-G1 populations”; with H460 cells (βII siRNA transfectants, 40 nM) it was “greater G2/M accumulation”; in the test with H460 cells (βIVb siRNA transfectants, 5 nM), “increase in the G2/M and sub-G1 populations”; with H460 cells (βIVb siRNA transfectants, 40 nM), “failed to undergo G2/M arrest”. Further, the IC50 came out at 1.68 ± 0.116 nM with NSCLC H460 cells (setting [3]), 2.95 ± 0.175 nM with NSCLC H460 cells (setting [4]), 4.25 ± 0.18 nM in the test on NSCLC H460 cells (Ctrl-1 (27-mer control siRNA) H460 cells) and 3.99 ± 0.158 nM in the test with NSCLC H460 cells (mock-transfected H460 cells). For the same compound, the “RS (relative sensitivity)” value with NSCLC H460 cells (setting [3]) was “(2.37, <0.0001***)”; in the test with NSCLC H460 cells (setting [4]), “(1.34, 0.001**)”; in the test on NSCLC H460 cells (Ctrl-1 H460 cells), “(0.94, NS)”. Moreover, the “change in drug sensitivity (clonogenic survival)” value in the test with NSCLC H460 cells (setting [5]) is reported as “significantly sensitized”; in the test with NSCLC H460 cells (setting [6]), “precipitous drop in surviving colonies”; in the test on NSCLC H460 cells (βIII-tubulin siRNA silencing vs controls), “significant increase in sensitivity”; with Calu-6 cells [2] (setting [5]), “significantly sensitized”; with Calu-6 cells [2] (setting [6]), “hypersensitive”. For the same compound, the microtubule morphology result in the test with Calu-6 cells [1] (βII siRNA-transfected Calu-6, 10 nM drug) was “dramatic disruption of the microtubule cytoskeleton”; in the test on Calu-6 cells [1] (βIII siRNA-transfected Calu-6, 10 nM drug), “extensive disruption of the microtubule cytoskeleton”; in the test with Calu-6 cells [1] (βIVb siRNA-transfected Calu-6, 10 nM drug), “dramatic disruption of the microtubule cytoskeleton”. Besides, the cross-resistance entry with CCRF-CEM Leukaemia cells is on record as “cross-resistance”.

The record behind these values is US20100159030A1, “METHODS FOR DETECTING AND MODULATING THE SENSITIVITY OF TUMOR CELLS TO ANTI-MITOTIC AGENTS AND FOR MODULATING TURMORGENICITY” (NewSouth Innovations Pty Limited, priority 2007, published 2010).
